Values after ≈ are worked out from the molar mass of the structure shown.

A short description of this data set: Thermodynamic solubility of the compound in monobasic potassium phosphate buffer at pH 7.4 after 24 hrs by LC-MS/MS analysis. Type of data set: physicochemical. To be noted: read-out: Therm_solubility.

With `CN(c1ccc(Cl)cc1)c1ccc(C(=O)c2ccc(C(=O)C3(c4ccccc4)CCCCC3)c(C(=O)O)c2)nc1`, the solubility thermodynamic at 24 h turned out to be 7 µM (≈ 3.87 µg/mL).

These data come from ChEMBL document CHEMBL3880387, “Bis aromatic compounds for use as LTC4 synthase inhibitors” (2013).
